Test results published in paper PMC9696085, “Fully Symmetric Cyclodextrin Polycarboxylates: How to Determine Reliable Protonation Constants from NMR Titration Data” (International Journal of Molecular Sciences, 2022).
Where two headings read alike, the source gives them in different places.

Legend:
[1] = design: method as in doi:10.1021/jp0340820; settings: cited from earlier work
[2] = cited from earlier work
[3] = 1H NMR-pH titration, protonation constants; type: physicochemical
Method: The pH meter readings were recorded using a Metrohm pH meter, equipped with a Metrohm 6.0234.110 combined glass electrode. A four-point calibration using pH 2.00, pH 4.00, pH 7.00 and pH 11.00 standard buffer solutions were performed directly before pH adjustments. The pH measurements were performed in 25 mL vessels with proper stirring before transferring 600 μL sample solutions into the NMR tubes. Solutions were prepared in the pH range of 1.50–8.70 with 0.30 increments using 0.9 M, 0.5 M and 0.1 M sodium hydroxide and hydrochloric acid solutions in H2O:D2O = 9:1.
For structural characterizations of CD derivatives in D2O, a 600 MHz Varian DDR NMR spectrometer equipped with a 5 mm inverse-detection gradient probe or a 400 MHz Varian Mercury Plus spectrometer equipped with a 5mm Varian 400 Automation Triple Resonance Broadband Pulsed Field Gradient probe was used. For NMR-pH titrations, the same instruments were used. The pH-dependent series of ^1H NMR spectra were recorded in a solvent mixture of H2O:D2O = 9:1 by volume, where the constant ionic strength and the buffer capacity were adjusted using 0.05 M sodium chloride and 0.05 M acetic acid-d4. An appropriate amount of CD was weighed to obtain a 1 mM solution and finally one drop of methanol was added as a chemical shift reference (3.310 ppm). The water resonance was diminished by the dpfgse pulse sequence or presaturation. All the spectra were processed using the MestReNova v9.0.1-13254 (Mestralab Research, S.L., Santiago de Compostela, Spain) software.
The standard macroscopic evaluation of NMR-pH titration curves (Equation (3) in Section 2.2) was performed with the following software tools: Microcal Origin Pro 8 (OriginLab Corp., Northampton, MA, USA), HypNMR2018 [38], OPIUM [39] and home-written R scripts (R version 4.1.2, The R Foundation, Vienna, Austria) using the nls module. The equidistant macroscopic (Equation (8)) and Q-fitting (Equations (4) and (11)) models were fitted both by Origin and our R-scripts to verify their equivalent performance regarding statistical description of the parameter estimates. The microscopic cluster expansion model in Section 2.5 requires summation of >100 variables which is unfeasible in the form of an explicit model function required by commercial data-fitting software like Origin. The enumeration of microspecies was therefore accomplished in a custom-written R script. To assess the robustness of our data-fitting model as well as the error propagation of the optimized log k and pε parameters to the derived log K macroconstants, Monte Carlo simulations on >1000 replicates were performed in R.

[4] = Literature, ref Hawkins, Perrin, Inorg. Chem. 2 (1963) 843
[5] = ED macro, Eq. (7) evaluation, calculated (*)
[6] = Macroscopic, Eq. (2) evaluation
[7] = Macroscopic, Eq. (2) evaluation, calculated (*)
[8] = Microscopic, Eq. (3) evaluation, calculated (*)

Row | Compound | pε (carboxylate interactions) [1] | log K1 [2, 4] | log K2 [2, 4] | log kA [2, 4] | pεAB [2, 4] | pε ([2]; earlier literature, almost independent carboxylate protonations) | log kA ([2]; literature value) | log K1 ([3]; ED macro, Eq. (7) evaluation) | log K2 ([3]; ED macro, Eq. (7) evaluation) | log kA [3, 5] | pεAB [3, 5] | log K1 [3, 6] | log K2 [3, 6] | log kA [3, 7] | pεAB [3, 7] | log K1 [3, 8] | log K2 [3, 8]
1 | oxidized glutathione | ≈ 0.1 |  |  |  |  |  |  |  |  |  |  |  |  |  |  |  | 
2 | O=C(O)CCSSCCC(=O)O [DTDPA, 3,3′-dithiodipropionic acid, reference compound] |  | 4.47 | 3.88 | 4.16 | -0.01 | ≈ 0 | 4.16 | 4.631 (0.005) | 3.883 (0.005) | 4.330 (0.005) | 0.15 (0.01) | 4.62 (0.06) | 3.87 (0.07) | 4.32 (0.06) | 0.15 (0.01) | 4.630 (0.005) | 3.88 (0.01)
